Here are results for 2 molecules from PMC3618669 (Journal of molecular recognition : JMR, 2013).

The term Kd denotes the constant that tells how readily two partners part at equilibrium. The term stoichiometry N denotes a count of units in the complex or per binding partner.

One data set deals with T1, CD40L (CD154) (Homo sapiens, UniProt P29965).
T1 sequence (P29965 108-261): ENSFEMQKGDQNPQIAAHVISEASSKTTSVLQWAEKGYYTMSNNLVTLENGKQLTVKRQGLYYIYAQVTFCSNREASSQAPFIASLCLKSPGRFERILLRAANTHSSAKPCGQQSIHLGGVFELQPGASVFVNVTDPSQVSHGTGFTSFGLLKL
In words: spectrophotometric metachromatic shift titration. The format is binding.

Data set [1] has as its target bovine serum albumin (BSA) (Bos taurus, UniProt P02769). Briefly: spectrophotometric metachromatic shift titration. The format is binding.
The data set “SEC” concerns the molecule itself. Briefly: SEC. In general terms: SEC sorts molecules by how far they enter the pores of the column.

Sequence of bovine serum albumin (BSA) (P02769 25-607): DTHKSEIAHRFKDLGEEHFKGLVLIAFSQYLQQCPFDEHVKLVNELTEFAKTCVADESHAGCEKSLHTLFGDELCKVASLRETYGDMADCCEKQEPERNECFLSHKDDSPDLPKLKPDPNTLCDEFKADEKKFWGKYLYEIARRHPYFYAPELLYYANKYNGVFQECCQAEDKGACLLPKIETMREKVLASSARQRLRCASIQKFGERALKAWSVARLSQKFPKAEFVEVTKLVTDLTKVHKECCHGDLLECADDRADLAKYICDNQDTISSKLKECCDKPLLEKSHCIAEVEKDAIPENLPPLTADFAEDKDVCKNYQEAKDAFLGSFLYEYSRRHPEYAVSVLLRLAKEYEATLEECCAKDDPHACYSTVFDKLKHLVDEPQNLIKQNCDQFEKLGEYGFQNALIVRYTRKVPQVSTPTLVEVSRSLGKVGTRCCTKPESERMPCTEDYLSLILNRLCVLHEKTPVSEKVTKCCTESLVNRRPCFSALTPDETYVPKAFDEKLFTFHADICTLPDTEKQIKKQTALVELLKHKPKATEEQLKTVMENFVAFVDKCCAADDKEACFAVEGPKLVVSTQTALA

As to `O=C1OC2(c3ccccc31)c1cc(I)c(O)c(I)c1Oc1c2cc(I)c(O)c1I` [ErB, erythrosine B], the values for the Kd (at CD40L (CD154); in data set [1]) were 20 µM and 14 µM, respectively.

B1: recombinant human histidine-tagged extracellular CD40L (ligand, UniProt P29965 108-261, looked up)
chain: ENSFEMQKGDQNPQIAAHVISEASSKTTSVLQWAEKGYYTMSNNLVTLENGKQLTVKRQGLYYIYAQVTFCSNREASSQAPFIASLCLKSPGRFERILLRAANTHSSAKPCGQQSIHLGGVFELQPGASVFVNVTDPSQVSHGTGFTSFGLLKL
Turning to B1, in “SEC”, the “stoichiometry N” value turned out to be 3.
